According to US10696985B1, “Reversibly crosslinked endosomolytic polymer vesicles for cytosolic drug delivery” (Vanderbilt University, priority 2016, dated 2020):

Columns and labels:
[1] = Encapsulation efficiency of cargo in PEG-EBP polymer vesicles; details: cGAMP within PEG-EBP vesicles; high performance liquid chromatography
Description: Encapsulation efficiency is defined as the percentage of cargo associated with the vesicle after cargo loading and separation of vesicles from unencapsulated cargo. N=number of experiments performed for a specific cargo type.
For formulation of polymeric vesicles, 5 mg of the polymer is mixed with 4 μL of ethanol. Upon equilibration, 4 μL of cGAMP solution (0-50 mg/mL in water) is added to the polymer/ethanol gel. […] Upon formation of vesicles, the colloid is diluted into water and sonicated further to generate the PEG-EBP encapsulated cGAMP colloid.
Solvent composition and stepwise addition amounts were chosen to maximize the vesicle yield of the formulation process while maximizing encapsulant concentration during vesicle self-assembly. […] Particles were crosslinked post assembly via addition of 0.5 molar equivalents of DTT relative to pyidyl disulfide moieties comprising the PEG-EBP colloid. Nanoparticles were readily separated from free cGAMP and crosslinking byproducts via centrifugal ultrafiltration using a 10 kDa cutoff.
Pyridyl disulfide (PDS) moieties were exploited for post-assembly in situ crosslinking of the vesicle membrane via partial reduction of disulfide bonds with DTT.

TLR-2 = target: T1, TLR-2 (Mus musculus, UniProt Q9EPQ1+Q9QUN7); assay: RAW264.7 NF-κB reporter cell assay; format: cell-based; details: incorporated into the PEG-EBP vesicle membrane, versus free Pam3CSK4
T1 construct: endogenous in cells; host or cells: RAW264.7 NF-kB reporter cells
T1 sequence (Q9QUN7 25-784): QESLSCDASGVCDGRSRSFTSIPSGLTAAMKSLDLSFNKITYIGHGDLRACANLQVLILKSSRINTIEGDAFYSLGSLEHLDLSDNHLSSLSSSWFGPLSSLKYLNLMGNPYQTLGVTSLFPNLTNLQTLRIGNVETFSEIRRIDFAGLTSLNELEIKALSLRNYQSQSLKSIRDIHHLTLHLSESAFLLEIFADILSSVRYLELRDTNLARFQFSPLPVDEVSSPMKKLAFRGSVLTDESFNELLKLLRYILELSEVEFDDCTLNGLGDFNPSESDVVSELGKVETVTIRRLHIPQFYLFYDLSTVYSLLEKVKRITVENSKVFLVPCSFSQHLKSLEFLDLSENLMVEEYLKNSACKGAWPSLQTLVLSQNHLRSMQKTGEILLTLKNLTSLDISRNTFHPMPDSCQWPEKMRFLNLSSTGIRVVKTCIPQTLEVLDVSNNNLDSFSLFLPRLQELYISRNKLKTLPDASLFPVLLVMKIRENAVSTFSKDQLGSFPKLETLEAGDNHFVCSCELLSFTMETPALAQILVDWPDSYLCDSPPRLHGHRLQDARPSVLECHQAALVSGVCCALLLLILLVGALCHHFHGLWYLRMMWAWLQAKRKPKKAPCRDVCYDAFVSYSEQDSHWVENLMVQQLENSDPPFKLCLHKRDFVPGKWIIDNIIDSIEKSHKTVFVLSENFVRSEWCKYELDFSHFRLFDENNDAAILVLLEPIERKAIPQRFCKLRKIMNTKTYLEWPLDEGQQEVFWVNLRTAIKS
T1 sequence (Q9EPQ1 25-795 limits assumed): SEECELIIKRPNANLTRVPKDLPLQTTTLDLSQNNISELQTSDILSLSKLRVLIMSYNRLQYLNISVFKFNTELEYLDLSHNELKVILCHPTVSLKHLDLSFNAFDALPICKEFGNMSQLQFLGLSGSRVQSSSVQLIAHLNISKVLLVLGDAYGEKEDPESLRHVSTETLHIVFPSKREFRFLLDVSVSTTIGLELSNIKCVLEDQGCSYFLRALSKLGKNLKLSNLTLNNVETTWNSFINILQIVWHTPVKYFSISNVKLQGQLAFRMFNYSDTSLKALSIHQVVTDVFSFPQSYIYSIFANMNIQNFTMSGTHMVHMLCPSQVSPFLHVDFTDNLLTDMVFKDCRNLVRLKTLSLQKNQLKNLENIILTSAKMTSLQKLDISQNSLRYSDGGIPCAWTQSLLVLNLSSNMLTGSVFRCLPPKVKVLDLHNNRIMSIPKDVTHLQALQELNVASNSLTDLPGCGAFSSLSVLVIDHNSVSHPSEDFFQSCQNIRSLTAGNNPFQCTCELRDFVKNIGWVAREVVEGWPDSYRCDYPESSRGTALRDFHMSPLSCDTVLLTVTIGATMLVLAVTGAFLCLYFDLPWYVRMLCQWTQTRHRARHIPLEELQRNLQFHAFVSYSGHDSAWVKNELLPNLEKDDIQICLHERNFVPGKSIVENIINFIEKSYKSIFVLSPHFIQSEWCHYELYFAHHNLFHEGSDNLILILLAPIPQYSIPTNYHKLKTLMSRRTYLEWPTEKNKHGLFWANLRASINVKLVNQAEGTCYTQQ
Source text: PEG-EBP polymer vesicles were also shown to serve as a carrier for agonists of pattern recognition receptors (PRRs) that reside on the cell surface. […] The reduced activity of Pam3CSK4 incorporated into vesicles is thought to be primarily related to the ˜50% of Pam3CSK4 molecules that are incorporated into the inner leaflet of the vesicle membrane, and therefore are not accessible for binding to cell surface TLR-2 molecules.

Compound | encapsulation efficiency [1] [%] | immunostimulatory activity (TLR-2)
Nc1nc2c(ncn2[C@@H]2O[C@@H]3COP(=O)(O)O[C@H]4[C@@H](O)[C@H](n5cnc6c(N)ncnc65)O[C@@H]4COP(=O)(O)O[C@@H]2[C@@H]3O)c(=O)[nH]1 [cGAMP, cyclic guanosine monophosphate-adenosine monophosphate] | 38±3 | –
Pam3CSK4 | – | partially retained
